In patent publication US20050186587A1, “Method for screening a substance which can suppress degradation of a nuclear receptor or a substance which can promote degradation of a nuclear receptor” (Interite, Inc., priority 2004, published 2005):
Values belong to the molecule of their own block, whether it stands above or below them. Where a SMILES comes first, the peptide text is derived from it. The star is where a group is joined. Cbz = O=C(OCc1ccccc1)*

Tests used:
Flag-ERαΔAD = biological target: T1, Flag-ERαΔAD (Homo sapiens, UniProt P03372); assay: Ubiquitination of Flag-ERαΔAD expressed in 293 cells, immune precipitation and anti-ubiquitin Western blotting; format: cell-based; details: no estrogen added but MG132 added, FIG. 3 lane 3
T1 construct: ERαΔAD (1-534) consisting of amino acids 1 through 534; expressed in transfected cells; host or cells: 293 cells
T1 sequence (P03372 1-534): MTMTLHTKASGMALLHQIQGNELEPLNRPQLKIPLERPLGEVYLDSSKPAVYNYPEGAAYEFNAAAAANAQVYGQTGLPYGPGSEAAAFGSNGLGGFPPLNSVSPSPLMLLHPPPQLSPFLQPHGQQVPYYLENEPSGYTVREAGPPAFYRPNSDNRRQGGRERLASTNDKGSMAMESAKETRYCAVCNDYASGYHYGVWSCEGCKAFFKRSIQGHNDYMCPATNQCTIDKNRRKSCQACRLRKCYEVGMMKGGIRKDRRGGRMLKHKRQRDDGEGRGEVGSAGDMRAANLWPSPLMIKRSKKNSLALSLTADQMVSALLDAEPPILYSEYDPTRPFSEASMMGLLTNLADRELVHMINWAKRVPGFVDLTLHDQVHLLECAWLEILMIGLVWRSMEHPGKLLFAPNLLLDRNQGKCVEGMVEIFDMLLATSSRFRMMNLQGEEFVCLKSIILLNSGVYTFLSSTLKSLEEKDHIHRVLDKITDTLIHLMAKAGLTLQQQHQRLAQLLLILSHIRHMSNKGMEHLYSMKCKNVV
Method: About 50 μg of MCF-7 cell nucleus extract or 293 cell nucleus extract was incubated for 1 hour at 4° C. in 25 mM tris-buffered saline containing 0.1% Tween20 (T-TBS) together with 50 μg of either glutathione sepharose beads or anti-Flag tag antibody beads (Santa Cruz Biotechnology). Beads to which protein had bound were washed 4 times with 25 mM tris-buffered saline containing 0.1% Tween20 and centrifuged for 1 minute at 5000 rpm, and the beads were collected. Protein was eluted from the beads by boiling in loading buffer.
(§1) Western blotting using the respective antibodies was accomplished by well-known methods (Yanagisawa, J. et al, Molecular Cell (2002) March, 9(3):553-562) with some alterations. 10 μg of each extract of MCF-7 cells and 293 cells was isolated by 8% or 10% SDS-PAGE, and transferred to a nitrocellulose membrane. This membrane was incubated for 1 hour in a blocking solution of 1% BSA (bovine serum albumin) and 5% skim milk added to 25 mM tris-buffered saline containing 0.02% Tween20 (T-TBS), and then reacted with the respective antibodies for 1 hour at 25° C. After being washed 3 times for 10 minutes each in 25° C. T-TBS, the membranes were incubated for 1 minute at 25° C. with peroxidase-bound goat anti-mouse antibodies. Protein that reacted with the antibodies was made visible with an Amersham Pharmacia high-sensitivity chemical luminescence detection system (ECL).

ERαΔAD = format: cell-based, human; details: 293 cells, 1 μM MG132, FIG. 2 lanes 2 and 4
Method: (§2) HeLa cells, human breast cancer-derived MCF-7 cells and human fetal kidney-derived 293 cells were cultured at 37° C. in Dulbecco's modified Eagle's medium (DMEM) containing 10% FCS in humidified air containing 5% (partial pressure) carbon dioxide gas.
(§3) The target DNA was diluted with 100 μL of OptiMEM medium (Life Technologies, Inc.). The amount of DNA was adjusted to a total of 1 μg by addition of blank vector. 10 μL of lipofectamine reagent (Life Technologies, Inc.) was diluted in the same way with 100 μL of OptiMEM medium. After being left at room temperature for 5 minutes, the two liquids were mixed and left for an additional 20 minutes to form a complex. This mixture was then dripped directly onto cells seeded on 12-well plates and cultured to 40-50% confluence in DMEM containing 0.2% FCS treated with activated charcoal, and transfection was performed. 6 hours after transfection normal medium was substituted, and after 24 hours' further culture the ligand was added.
10 μg of each extract of MCF-7 cells and 293 cells was isolated by 8% or 10% SDS-PAGE, and transferred to a nitrocellulose membrane. […] Protein that reacted with the antibodies was made visible with an Amersham Pharmacia high-sensitivity chemical luminescence detection system (ECL). […]

[1] = system: ERα, ERα(V364E), ERα(C447A), ERαΔAD or ERα(L540Q); assay: Amount of normal and mutant ERα protein in 293 cells with proteasome inhibitor (Test Example 8, FIG. 11); format: cell-based, human; details: MG132 added to the cells, FIG. 11 lanes 1 through 5
Method: CHIP or CHIPΔUbox (a mutant having the ubiquitin ligase activity removed) were made to be expressed in cells already co-expressing normal ERα and a dominant negative mutant of ERα, and the transcriptional activation ability of ERα was measured. […] The amount of ERα in the cell nucleus extract was measured at the same time by Western blotting. ERα(V364E), ERα(C447A), ERαΔAD and ERα(L540Q) were used as the dominant negative mutants of ERα. […] ERαΔAD is a helix 12 deletion mutant, while ERα(L540Q) is a helix 12 single-residue substitution mutant, and the transcriptional activity of both is low because they can no longer bind to transcriptional activation factors. ERαΔAD and ERα(L540Q) are not temperature sensitive.
The amount of protein was also slightly lower in the case of ERαΔAD (See FIG. 11 lane 4).

[2] = biological target: T2, estrogen receptor alpha (ERα) (Homo sapiens, UniProt P03372); assay: Amount of ERα in MCF-7 cell nucleus extracts by Western blotting (Test Example 1); format: cell-based; details: MCF-7 cells, MG132 at 1 μM, both with and without estrogen, FIG. 1(b) lanes 3 and 4
T2 construct: ERα was first purified from MCF-7 cell nucleus extract by immune precipitation; endogenous in cells; host or cells: MCF-7 cells
Method: as §2
10 μg of each extract of MCF-7 cells and 293 cells was isolated by 8% or 10% SDS-PAGE, and transferred to a nitrocellulose membrane. This membrane was incubated for 1 hour in a blocking solution of 1% BSA (bovine serum albumin) and 5% skim milk added to 25 mM tris-buffered saline containing 0.02% Tween20 (T-TBS), and then reacted with the respective antibodies for 1 hour at 25° C. After being washed 3 times for 10 minutes each in 25° C. T-TBS, the membranes were incubated for 1 minute at 25° C. with peroxidase-bound goat anti-mouse antibodies. Protein that reacted with the antibodies was made visible with an Amersham Pharmacia high-sensitivity chemical luminescence detection system (ECL).

ERα = biological target: T3, ERα (Homo sapiens, UniProt P03372); details: 293 cells, 24 hours, 1 μM OHT or 100 nM ICI (or estrogen), FIG. 7, FIGS. 8(a) and (b)
T3 sequence (P03372 1-595): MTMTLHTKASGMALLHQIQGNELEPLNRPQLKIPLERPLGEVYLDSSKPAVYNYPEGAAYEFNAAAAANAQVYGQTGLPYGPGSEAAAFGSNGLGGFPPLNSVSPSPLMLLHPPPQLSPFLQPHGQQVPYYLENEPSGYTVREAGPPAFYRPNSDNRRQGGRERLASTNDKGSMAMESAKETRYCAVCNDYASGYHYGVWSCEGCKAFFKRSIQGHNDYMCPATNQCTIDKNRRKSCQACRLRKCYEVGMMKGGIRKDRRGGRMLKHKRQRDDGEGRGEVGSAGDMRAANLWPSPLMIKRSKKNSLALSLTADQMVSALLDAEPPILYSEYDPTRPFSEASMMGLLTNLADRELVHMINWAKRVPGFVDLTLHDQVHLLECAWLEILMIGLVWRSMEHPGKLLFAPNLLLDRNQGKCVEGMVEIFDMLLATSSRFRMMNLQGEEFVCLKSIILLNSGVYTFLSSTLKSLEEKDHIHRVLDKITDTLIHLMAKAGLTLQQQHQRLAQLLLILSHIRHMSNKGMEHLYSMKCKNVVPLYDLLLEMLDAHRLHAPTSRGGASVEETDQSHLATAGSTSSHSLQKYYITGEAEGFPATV
Method: as §1

ERα and CHIP = biological target: T4, ERα and CHIP (Homo sapiens, UniProt P03372); details: 293 cells, 24 hours, 10 nM estrogen, 1 μM tamoxifen (OHT) or 100 nM fulvestrant (ICI), FIG. 6
T4 sequence (P03372 1-595): T3 sequence (P03372 1-595)
Method: as §3
GST pull-down was performed by well-known methods (Yanagisawa, J. et al, Molecular Cell (2002) March, 9(3):553-562). […]
Western blotting using the respective antibodies was accomplished by well-known methods (Yanagisawa, J. et al, Molecular Cell (2002) March, 9(3):553-562) with some alterations. […] Protein that reacted with the antibodies was made visible with an Amersham Pharmacia high-sensitivity chemical luminescence detection system (ECL). […]

[3] = biological target: T5, estrogen receptor alpha (ERα), not bound to a ligand, P03372
T5 chain: T3 sequence (P03372 1-595)

Molecule: CC(C)C[C@@H](C=O)NC(=O)[C@H](CC(C)C)NC(=O)[C@H](CC(C)C)NC(=O)OCc1ccccc1 [MG132] (Cbz-Leu-Leu-Leu-aldehyde)
- ubiquitinated ERαΔAD (Flag-ERαΔAD-Ub) (Flag-ERαΔAD): strong accumulation of a polyubiquitin protein
- degradation of ERαΔAD (ERαΔAD): inhibited
- amount of expression of mutant ERα versus normal ERα [1]: no difference between the various mutants and normal ERα
- amount of ERα [2]: increased dramatically

- degradation of ERα by CHIP (ERα): block degradation of ERα by CHIP
Molecule: C[C@]12CC[C@@H]3c4ccc(O)cc4C[C@@H](CCCCCCCCC[S+]([O-])CCCC(F)(F)C(F)(F)F)[C@H]3[C@@H]1CC[C@@H]2O (some centres unmarked) [fulvestrant]
- co-precipitation of ERα with CHIP (ERα and CHIP): co-precipitated with CHIP only when cultured without the addition of a ligand

B1: CHIP (carboxyl-terminus of Hsc70 interacting protein) (protein)
chain: MKGKEEKEGGARLGAGGGSPEKSPSAQELKEQGNRLFVGRKYPEAAACYGRAITRNPLVAVYYTNRALCYLKMQQHEQALADCRRALELDGQSVKAHFFLGQCQLEMESYDEAIANLQRAYSLAKEQRLNFGDDIPSALRIAKKKRWNSIEERRIHQESELHSYLSRLIAAERERELEECQRNHEGDEDDSHVRAQQACIEAKHDKYMADMDELFSQVDEKRKKRDIPDYLCGKISFELMREPCITPSGITYDRKDIEEHLQRVGHFDPVTGSPLTQEQFIPNLAMKEVIDAFISENGWVEDY
- amount of degradation of ERα measured by Western blotting [3]: both ERαΔAD and ERα were strongly degraded when estrogen was not added (see FIG. 7, lane 3). This degradation increased when the expressed amount of CHIP was increased
- amount of degradation of ERαΔAD measured by Western blotting (ERαΔAD, P03372): both ERαΔAD and ERα were strongly degraded when estrogen was not added (see FIG. 7, lane 3). This degradation increased when the expressed amount of CHIP was increased
